Reference: publication PMC12136991 (ACS chemical neuroscience, 2025)
≈ marks a conversion by molar mass, not a printed value. Where “and” joins values, the source holds several entries; their conditions need not be identical. Identical values can stand only once.

What was measured:
Kinetic solubility assay = type: physicochemical; conditions: kinetic from dmso stock
[1] = Multi-point cytosol stability assay, mouse; type: in vitro ADME; conditions: mouse cytosol fractions, pH 7.4
[2] = target: T1, human κ-opioid receptor (OPRK1) (Homo sapiens, UniProt P41145); test: Forskolin-induced cAMP accumulation assay, KOR agonist mode; conditions: for Emax: read-out: KOR Agonist %Emax ± SEM
[3] = Multi-point cytosol stability assay, rat; type: in vitro ADME; conditions: rat cytosol fractions, pH 7.4
[4] = target: human μ-opioid receptor (OPRM1) (Homo sapiens, UniProt P35372); test: cell-based; conditions: for Emax: OPRM1, read-out: MOR Agonist %Emax ± SEM
[5] = Multi-point microsome stability assay, human; type: in vitro ADME; conditions: both, human microsomal fractions, pH 7.4
[6] = target: T2, human δ-opioid receptor (OPRD1) (Homo sapiens, UniProt P41143); test: Forskolin-induced cAMP accumulation assay, DOR antagonist mode; conditions: for DOR Antagonist %Imax ± SEM: versus EC50 of SNC80, normalized to naltrexone
[7] = Multi-point microsome stability assay, mouse; type: in vitro ADME; conditions: male, CD-1, mouse, mouse microsomal fractions, pH 7.4
[8] = Multi-point microsome stability assay, rat; type: in vitro ADME; conditions: male, Sprague Dawley, rat microsomal fractions, pH 7.4
[9] = Multi-point cytosol stability assay, human; type: in vitro ADME; conditions: human cytosol fractions, pH 7.4
[10] = target: T2, human δ-opioid receptor (OPRD1); test: Forskolin-induced cAMP accumulation assay, DOR agonist mode; conditions: for Emax: read-out: DOR Agonist %Emax ± SEM
mice = conditions: administered before IP 0.56% lactic acid; previously published; cited from earlier work
[11] = target: T1, human κ-opioid receptor (OPRK1); test: Forskolin-induced cAMP accumulation assay, KOR antagonist mode
[12] = target: T3, mouse mu opioid receptor (mMOR-CHO) (Mus musculus, UniProt P42866); test: [35S]GTPγS functional assay, mMOR-CHO membranes; type: biochemical
[13] = Parallel artificial membrane permeability assay; type: in vitro ADME; conditions: for PAMPA permeability Papp: stirring double-sink PAMPA
[14] = target: T3, mouse mu opioid receptor (mMOR-CHO); test: Competition radioligand binding assay, [3H]naloxone, mMOR-CHO membranes

T1 sequence (P41145 whole entry): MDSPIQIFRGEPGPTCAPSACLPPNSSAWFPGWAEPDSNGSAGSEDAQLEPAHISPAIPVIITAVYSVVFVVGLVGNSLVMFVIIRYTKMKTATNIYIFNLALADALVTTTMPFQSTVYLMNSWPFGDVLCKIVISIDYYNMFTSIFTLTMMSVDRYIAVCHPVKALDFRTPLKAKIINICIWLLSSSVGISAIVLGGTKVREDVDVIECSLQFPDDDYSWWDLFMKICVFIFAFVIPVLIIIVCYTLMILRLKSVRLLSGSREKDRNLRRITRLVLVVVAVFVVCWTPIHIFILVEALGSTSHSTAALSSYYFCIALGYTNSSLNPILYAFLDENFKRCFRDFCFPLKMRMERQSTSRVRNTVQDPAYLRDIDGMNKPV
T2 sequence (P41143 whole entry): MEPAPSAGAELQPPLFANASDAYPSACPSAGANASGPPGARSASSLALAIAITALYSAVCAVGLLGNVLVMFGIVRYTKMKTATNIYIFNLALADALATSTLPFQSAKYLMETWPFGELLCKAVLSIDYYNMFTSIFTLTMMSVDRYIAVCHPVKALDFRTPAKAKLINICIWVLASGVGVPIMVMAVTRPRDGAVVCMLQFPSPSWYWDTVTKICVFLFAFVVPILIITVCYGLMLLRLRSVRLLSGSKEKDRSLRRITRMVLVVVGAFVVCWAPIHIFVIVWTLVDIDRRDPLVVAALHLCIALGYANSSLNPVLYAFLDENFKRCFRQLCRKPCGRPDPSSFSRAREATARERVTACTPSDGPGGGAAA
T3 sequence (P42866 whole entry): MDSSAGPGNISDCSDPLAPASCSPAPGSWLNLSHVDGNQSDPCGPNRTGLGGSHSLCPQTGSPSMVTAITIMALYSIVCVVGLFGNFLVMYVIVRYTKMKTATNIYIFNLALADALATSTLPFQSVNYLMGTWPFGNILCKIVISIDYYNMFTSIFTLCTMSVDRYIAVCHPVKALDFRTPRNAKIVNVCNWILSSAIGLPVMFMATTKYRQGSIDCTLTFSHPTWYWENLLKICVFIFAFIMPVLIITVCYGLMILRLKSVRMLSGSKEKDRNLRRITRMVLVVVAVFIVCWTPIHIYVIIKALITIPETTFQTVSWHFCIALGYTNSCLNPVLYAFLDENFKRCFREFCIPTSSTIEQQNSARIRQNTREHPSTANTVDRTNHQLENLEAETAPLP
Chain of human μ-opioid receptor (OPRM1) (P35372 whole entry): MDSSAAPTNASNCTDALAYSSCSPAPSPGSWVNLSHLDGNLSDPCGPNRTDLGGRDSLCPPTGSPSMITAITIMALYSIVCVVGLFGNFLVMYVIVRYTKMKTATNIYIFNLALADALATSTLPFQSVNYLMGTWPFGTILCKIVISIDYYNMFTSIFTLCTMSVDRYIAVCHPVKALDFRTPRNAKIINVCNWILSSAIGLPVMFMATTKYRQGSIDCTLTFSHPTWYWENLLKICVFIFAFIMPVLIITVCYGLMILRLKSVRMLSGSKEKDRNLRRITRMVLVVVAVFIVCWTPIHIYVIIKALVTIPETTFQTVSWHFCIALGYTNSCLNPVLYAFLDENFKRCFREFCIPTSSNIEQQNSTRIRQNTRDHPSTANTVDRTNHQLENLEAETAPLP

| Compound | solubility kinetic (Kinetic solubility assay) | half-life at 1 μM [1] | EC50 [2] | half-life at 1 μM [3] | EC50 [4] | Emax [4] | half-life at 1 μM [5] | IC50 [6] | DOR Antagonist %Imax ± SEM [6] | half-life at 1 μM [7] | half-life at 1 μM [8] | half-life at 1 μM [9] | EC50 [10] | Emax [10] | also measured |
| --- | --- | --- | --- | --- | --- | --- | --- | --- | --- | --- | --- | --- | --- | --- | --- |
| C=C[C@H]1C2CCCC1(c1cccc(O)c1)CCN2CCc1ccccc1[N+](=O)[O-] (stereo in doubt) [compound 24, 3-((1S,SR,9R)-2-(2-Nitrophenethyl)-9-vinyl-2-azabicyclo[3.3.1]nonan-5-yl)phenol] | > 39 µg/mL | 102 min | > 10 µM | > 120 min | 0.00255 µM | 92.6% | 5.02 min | 0.114 ± 0.0117 µM | 63.5 ± 12.0% | 1.22 min | 0.41 min | 112 min | 0.954 ± 0.502 µM | 35.9% | Emax [2]: 0% |
| C=C[C@H]1C2CCCC1(c1cccc(O)c1)CCN2CCc1cccc(O)c1 (stereo in doubt) [compound 25, 3-((1S,5R,9R)-2-(3-Hydroxyphenethyl)-9-vinyl-2-azabicyclo[3.3.1]nonan-5-yl)phenol] | – | > 120 min | > 10 µM | > 120 min | 0.00093 µM | 89.7% | 27 min | 0.107 ± 0.0124 µM | 138.7 ± 19.3% | 4.02 min | 9.65 min | > 120 min | > 10 µM | 0% | – |
| C=C[C@H]1[C@H]2CCC[C@]1(c1cccc(O)c1)CCN2CCc1ccccc1 [DC-1–76.2, 3-((1R,5S,9R)-2-phenethyl-9-vinyl-2-azabicyclo[3.3.1]nonan-5-yl)phenol, reference compound] | 34 µg/mL (≈ 97.8 µM) | 71.9 min | – | > 120 min | – | – | 12 min | – | 119.1 ± 15.5% | 4.7 min | 6.9 min | 80.7 min | – | – | effect on IP acid-induced depression of Crosses and Movement (mice): failed to alleviate IP acid-induced depression of Crosses but did alleviate IP acid-induced depression of Movement; KOR Antagonist %Imax ± SEM ([11]; versus EC90 of U50488H, normalized to nor-BNI): 97.1 ± 9.2%; GTPγS % Emax of (DAMGO) ([12]; MOR, % of maximal DAMGO stimulation): 29.09 ± 0.78% |
| C=C[C@H]1[C@H]2CCC[C@]1(c1cccc(NC(C)=O)c1)CCN2CCc1ccccc1 [compound 3, N-(3-((1R,5S,9R)-2-Phenethyl-9-vinyl-2-azabicyclo[3.3.1]nonan-5-yl)phenyl)acetamide] | 38 µg/mL (≈ 97.8 µM) | 22.9 min | 0.357 ± 0.109 µM | 88.1 min | 0.00273 µM | 101% | 21.3 min | – | – | 6.4 min | 3 min | 78 min | 0.303 ± 0.0407 µM | 56.6% | Emax [2]: 45.5%; Papp ([13]; PAMPA): 731 ×10⁻⁶ cm/s |
| C=C[C@@H]1[C@H]2CCC[C@]1(c1cccc(O)c1)CCN2C [compound 10, 3-((1R,5S,9S)-2-Methyl-9-vinyl-2-azabicyclo[3.3.1]nonan-5-yl)phenol] | > 25 µg/mL | > 120 min | > 10 µM | 116 min | > 10 µM | – | > 120 min | > 10 µM | – | 72.1 min | 50.8 min | > 120 min | > 10 µM | – | IC50 [11]: > 10 µM |
| C=C[C@H]1[C@H]2CCC[C@]1(c1cccc(O)c1)CCN2C [compound 11, 3-((1R,5S,9R)-2-Methyl-9-vinyl-2-azabicyclo[3.3.1]nonan-5-yl)phenol] | > 25 µg/mL | 112 min | > 10 µM | > 120 min | > 10 µM | – | 68.9 min | > 10 µM | – | 21.8 min | 62.6 min | 97.9 min | > 10 µM | – | IC50 [11]: > 10 µM |
| C=C[C@H]1[C@H]2CCC[C@]1(c1cccc(O)c1)CCN2CC1CC1 [compound 15, 3-((1R,5S,9R)-2-(Cyclopropylmethyl)-9-vinyl-2-azabicyclo[3.3.1]nonan-5-yl)phenol] | > 29 µg/mL | > 120 min | > 10 µM | 108 min | > 10 µM | – | 8.7 min | > 10 µM | – | 2.7 min | 9.7 min | > 120 min | > 10 µM | – | PAMPA permeability Papp [13]: >1000 10E-6 cm/s |
| C=C[C@H]1[C@H]2CCC[C@]1(c1cccc(O)c1)CCN2CCc1cccs1 [compound 16, 3-((1R,5S,9R)-2-(2-(Thiophen-2-yl)ethyl)-9-vinyl-2-azabicyclo[3.3.1]nonan-5-yl)phenol] | > 35 µg/mL | > 120 min | – | > 120 min | 0.0008 µM | 101% | 8.21 min | 0.0598 ± 0.013 µM | 87.1 ± 13.9% | 1.66 min | 1.04 min | > 120 min | 0.0132 ± 0.0068 µM | 20% | – |
| C=C[C@H]1[C@H]2CCC[C@]1(c1cccc(O)c1)CCN2CCc1ccc([N+](=O)[O-])cc1 [compound 17, 3-((1R,5S,9R)-2-(4-Nitrophenethyl)-9-vinyl-2-azabicyclo[3.3.1]nonan-5-yl)phenol] | 10.6 µg/mL (≈ 27 µM) | 105 min | > 10 µM | > 120 min | > 10 µM | – | 16.8 min | 0.105 ± 0.0213 µM | 137.2 ± 9.7% | 9.31 min | 12.9 min | > 120 min | – | – | Ki [14]: 0.00041 ± 5e-05 µM; IC50 [12]: 0.0162 ± 0.00252 µM; GTPγS % Imax of (DAMGO) ([12]; MOR, maximal percent inhibition): 98.42% and 98.42 ± 4.24% |
| C=C[C@H]1[C@H]2CCC[C@]1(c1cccc(O)c1)CCN2CCc1cccc([N+](=O)[O-])c1 [compound 18, 3-((1R,5S,9R)-2-(3-Nitrophenethyl)-9-vinyl-2-azabicyclo[3.3.1]nonan-5-yl)phenol] | > 39 µg/mL | > 120 min | > 10 µM | > 120 min | 0.00205 µM | 85.8% | 10.6 min | 0.0525 ± 0.00843 µM | 149.9 ± 13.2% | 3.54 min | 1.98 min | > 120 min | > 10 µM | – | Emax [2]: 0%; PAMPA permeability Papp [13]: >1000 10E-6 cm/s |
| C=C[C@H]1[C@H]2CCC[C@]1(c1cccc(O)c1)CCN2CCc1ccc(F)cc1 [compound 19, 3-((1R,5S,9R)-2-(4-Fluorophenethyl)-9-vinyl-2-azabicyclo[3.3.1]nonan-5-yl)phenol] | > 36 µg/mL | 108 min | > 10 µM | 79.4 min | 0.00333 µM | 74.3% | 11.8 min | 0.12 ± 0.0185 µM | 153.1 ± 15.3% | 5.26 min | 7.6 min | > 120 min | > 10 µM | – | – |
| C=C[C@H]1[C@H]2CCC[C@]1(c1cccc(O)c1)CCN2CCc1ccc(O)cc1 [compound 20, 3-((1R,5S,9R)-2-(4-Hydroxyphenethyl)-9-vinyl-2-azabicyclo[3.3.1]nonan-5-yl)phenol] | > 34 µg/mL | > 120 min | > 10 µM | > 120 min | 0.00416 µM | 54.8% | 88.1 min | 0.303 ± 0.0292 µM | 163.6 ± 19.5% | 12.5 min | 27.8 min | > 120 min | > 10 µM | – | – |
